In the assay the test system is RSV A2. The assay is described as follows: RSV inhibition (cytopathic effect inhibition) using Viral ToxGlo assay in HEp-2 cells. The format is cell-based. The settings on record: human respiratory syncytial virus, RSV A2, MOI 0.5, HEp-2 cells, 72 h p.i. On the procedure:
Protocol for Screening Antiviral Compounds for RSV Inhibition and Cytotoxicity Using Viral ToxGlo Assay
HEp-2 cells were maintained in Eagle's minimum essential medium (EMEM) with Earle's BSS adjusted to contain 2 mM L-glutamine, 10% fetal bovine serum, 100 U/ml penicillin and 100 μg/ml streptomycin. For the purposes of the screening assay they were grown to 90% confluency, trypsinized and recovered. The trypsin was neutralised with cell culture media and cells were centrifuged at 150×g for 5 minutes before discarding the supernatant and resuspending cell pellet in assay media (EMEM with Earle's BSS adjusted to contain 2 mM L-glutamine, 2% fetal bovine serum and 100 U/ml penicillin and 100 μg/ml streptomycin). The cells were seeded into white clear-bottomed cell culture plates at a density of 1.5×10^4 cells/well in 50 μl and 4×10^3 cells/well in 25 μl for 96 well plates and 384 well plates respectively. For the media/background control column assay media only was added. Cell plates were placed in a humid chamber and incubated overnight at 37° C./5% CO2. After overnight incubation cells were checked for confluency and healthy appearance.
Test articles were made up at 10× test concentration in a maximum DMSO concentration of 10% (final assay concentration maximal 1% DMSO) and added to the cell plates in volumes of 10 μl for 96 well plates and 5 μl for 384 well plates. For cell control and virus control wells the test article solvent only was added. Virus or assay media for cytotoxicity test wells and media/cell control wells was added immediately after test articles at an MOI of 0.5, 40 or 20 μl for 96 and 384 well plates respectively. Virus suspension was prepared by thawing RSV A2 frozen stocks and diluting to the required concentration of plaque forming units in assay media on ice.
Cell plates were further incubated inside a humid chamber for 72 h p.i at 37° C./5% CO2. After the incubation period cells were observed under the microscope to check for characteristic cytopathic effect in virus control wells and healthy cells in the cell control wells. After plates were adjusted to room temperature 20/40 μl Viral ToxGlo (Promega) was added to each well of the 384/96 well cell plates. Plates were incubated at room temperature, protected from light on a plate rocker for 20 minutes before measuring the luminescence on a spectrophotometer (Biotek Synergy HTX).
RSV inhibition was calculated as percentage of cytopathic effect inhibition relative to the virus control and cytotoxicity as percentage of cell survival relative to cell control wells. This allowed EC50 values to be calculated for each test article where a virus inhibition or cytotoxic dose response was identified.
(In general: Damage to the host cells serves as the signal in cytopathic effect assays.)
In the case of `Cc1cc(OCc2ccc(OC(F)(F)F)cc2)ccc1Nc1cccc(NC(=O)CCC2CCCCC2)c1` [Compound 153, 3-cyclohexyl-N-{3-[(2-methyl-4-{[4-(trifluoromethoxy)phenyl]methoxy}phenyl)amino]phenyl}propanamide], the EC50 stood at 809 nM.

As to `O=C(NCC1CCCC1)c1ccccc1Nc1ccc(OCc2ccccn2)cc1C1CC1` [Compound 113, N-(cyclopentylmethyl)-2-({2-cyclopropyl-4-[(pyridin-2-yl)methoxy]phenyl}amino)benzamide], the EC50 was 69 nM.

With `CC(C)Cn1nnc(-c2cccc(Nc3ccc(OCc4ccccn4)cc3C3CC3)c2)n1` [Compound 147, 2-cyclopropyl-N-{3-[2-(2-methylpropyl)-2H-1,2,3,4-tetrazol-5-yl]phenyl}-4-[(pyridin-2-yl)methoxy]aniline], the EC50 is 414 nM.

With `O=C(O)C(NCCC1CCCCC1)c1cccc(Nc2ccc(OCc3ccccc3)cc2C2CC2)c1` (stereo not drawn) [Compound 135, 2-(3-{[4-(benzyloxy)-2-cyclopropylphenyl]amino}phenyl)-2-[(2-cyclohexylethyl)amino]aceticacid], the EC50 came out at 292 nM.

As to `Cc1cc(OCc2ncccn2)ccc1Nc1cccc(OCCCC2CCCCC2)c1` [Compound 152, N-[3-(3-cyclohexylpropoxy)phenyl]-2-methyl-4-[(pyrimidin-2-yl)methoxy]aniline], the 50% effective concentration (EC50) was 802 nM.

For `c1ccc(COc2ccc(Nc3cccc(OCCCC4CCCCC4)c3)c(N3CCC3)c2)cc1` [Compound 131, 2-(azetidin-1-yl)-4-(benzyloxy)-N-[3-(3-cyclohexylpropoxy)phenyl]aniline], the EC50 is 204 nM.

In the case of `O=C(NCCC1CCCC1)c1cccc(Nc2ccc(OCc3ccccn3)cc2C2CC2)c1` [Compound 60, N-(2-cyclopentylethyl)-3-((2-cyclopropyl-4-(pyridin-2-ylmethoxy)phenyl)amino)benzamide], the concentration giving a half-maximal response (EC50) stood at 67 nM.

`OC(CCCC1CCCCC1)c1cccc(Nc2ccc(OCc3ccccc3)cc2C2CC2)c1` (stereo not drawn) [Compound 97, 1-(3-{[4-(benzyloxy)-2-cyclopropylphenyl]amino}phenyl)-4-cyclohexylbutan-1-ol]: the EC50 amounted to 10 nM.

In the case of `c1ccc(COc2ccc(Nc3cccc(-c4nnc(CCC5CCCCC5)o4)c3)c(C3CC3)c2)nc1` [Compound 130, N-{3-[5-(2-cyclohexylethyl)-1,3,4-oxadiazol-2-yl]phenyl}-2-cyclopropyl-4-[(pyridin-2-yl)methoxy]aniline], the 50% effective concentration (EC50) is 198 nM.

For `CCCC(C)NC(=O)c1cccc(Nc2ccc(OCc3ccccn3)cc2CC)c1` (stereo not drawn) [Compound 78, N-(1-methylbutyl)-3-((2-ethyl-4-(pyridin-2-ylmethoxy)phenyl)amino)benzamide], the EC50 amounted to 58 nM.

On to `O=S(=O)(CCCC1CCCCC1)c1cccc(Nc2ccc(OCc3ccccc3)cc2C2CC2)c1` [Compound 142, 4-(benzyloxy)-N-[3-(3-cyclohexylpropanesulfonyl)phenyl]-2-cyclopropylaniline], for which the EC50 was determined as 370 nM.

Turning to `CC(C)CCCOc1cccc(Nc2ccc(OCc3ccccn3)cc2C2CC2)c1` [Compound 106, 2-cyclopropyl-N-{3-[(4-methylpentyl)oxy]phenyl}-4-[(pyridin-2-yl)methoxy]aniline], the EC50 stood at 33 nM.

With `c1ccc(COc2ccc(Nc3cccc(OC4CCC4)c3)c(C3CC3)c2)nc1` [Compound 137, N-(3-cyclobutoxyphenyl)-2-cyclopropyl-4-[(pyridin-2-yl)methoxy]aniline], the concentration for a half-maximal effect (EC50) is 300 nM.

As for `Cc1c(Nc2ccc(OCc3ccccc3)cc2C2CC2)cccc1OCCCC1CCCCC1` [Compound 105, 4-(benzyloxy)-N-[3-(3-cyclohexylpropoxy)-2-methylphenyl]-2-cyclopropylaniline], the concentration for a half-maximal effect (EC50) came to 31 nM.

As to `CCCC(C)NC(=O)c1cccc(Nc2ccc(OCc3ccccn3)cc2C)c1` (stereo not drawn) [Compound 77, N-(1-methylbutyl)-3-((2-methyl-4-(pyridin-2-ylmethoxy)phenyl)amino)benzamide], the EC50 worked out at 124 nM.

As for `c1ccc(COc2ccc(Nc3cncc(OCCCC4CCCCC4)c3)c(C3CC3)c2)nc1` [Compound 166, 5-(3-cyclohexylpropoxy)-N-{2-cyclopropyl-4-[(pyridin-2-yl)methoxy]phenyl}pyridin-3-amine], the EC50 stood at 2490 nM.

For the compound `CSc1cc(OCc2ccccc2)ccc1Nc1cccc(NC(=O)CCC2CCCCC2)c1` [Compound 94, N-(3-{[4-(benzyloxy)-2-(methylsulfanyl)phenyl]amino}phenyl)-3-cyclohexylpropanamide], the concentration for a half-maximal effect (EC50) is 7 nM.

Take `CC(C)CCc1nc(-c2cccc(Nc3ccc(OCc4ccccn4)cc3C3CC3)c2)no1` [Compound 127, 2-cyclopropyl-N-{3-[5-(3-methylbutyl)-1,2,4-oxadiazol-3-yl]phenyl}-4-[(pyridin-2-yl)methoxy]aniline]: the EC50 came out at 148 nM.

As to `CC(C)NC(=O)c1c(C#N)cccc1Nc1ccc(OCc2ccccc2)cc1C1CC1` [Compound 128, 2-{[4-(benzyloxy)-2-cyclopropylphenyl]amino}-6-cyano-N-(propan-2-yl)benzamide], the EC50 amounted to 156 nM.

Turning to `CN(c1cccc(C(=O)NCCC2CCCCC2)c1)c1ccc(OCc2ccccn2)cc1C1CC1` [Compound 111, N-(2-cyclohexylethyl)-3-({2-cyclopropyl-4-[(pyridin-2-yl)methoxy]phenyl}(methyl)amino)benzamide], the EC50 amounted to 62 nM.

Regarding `c1ccc(COc2ccc(Nc3cccc(OCCCC4CCCCC4)c3)c(C3CCOCC3)c2)cc1` [Compound 164, 4-(benzyloxy)-N-[3-(3-cyclohexylpropoxy)phenyl]-2-(oxan-4-yl)aniline], the EC50 is 1320 nM.

For `O=S(=O)(NCCC1CCCCC1)c1cccc(Nc2ccc(OCc3ccccc3)cc2C(F)(F)F)c1` [Compound 124, 3-{[4-(benzyloxy)-2-(trifluoromethyl)phenyl]amino}-N-(2-cyclohexylethyl)benzene-1-sulfonamide], the EC50 was determined as 126 nM.

On to `c1ccc(COc2ccc(Nc3ccccc3OCCCC3CCCCC3)c(C3CC3)c2)cc1` [Compound 154, 4-(benzyloxy)-N-[2-(3-cyclohexylpropoxy)phenyl]-2-cyclopropylaniline], for which the concentration for a half-maximal effect (EC50) amounted to 810 nM.

As for `CC(C)CCc1cn(-c2cccc(Nc3ccc(OCc4ccccn4)cc3C3CC3)c2)nn1` [Compound 112, 2-cyclopropyl-N-{3-[4-(3-methylbutyl)-1H-1,2,3-triazol-1-yl]phenyl}-4-[(pyridin-2-yl)methoxy]aniline], the EC50 stood at 67 nM.

As to `OCC(O)(CCC1CCCCC1)c1cccc(Nc2ccc(OCc3ccccc3)cc2C2CC2)c1` (stereo not drawn) [Compound 155, 2-(3-{[4-(benzyloxy)-2-cyclopropylphenyl]amino}phenyl)-4-cyclohexylbutane-1,2-diol], the concentration for a half-maximal effect (EC50) turned out to be 1030 nM.

As for `c1ccc(COc2ccc(Nc3cccc(-c4noc(CCC5CCCCC5)n4)c3)c(C3CC3)c2)nc1` [Compound 129, N-{3-[5-(2-cyclohexylethyl)-1,2,4-oxadiazol-3-yl]phenyl}-2-cyclopropyl-4-[(pyridin-2-yl)methoxy]aniline], the EC50 is 175 nM.

With `C1=C(c2cc(OCc3ccccc3)ccc2Nc2cccc(OCCCC3CCCCC3)c2)CCOC1` [Compound 165, 4-(benzyloxy)-N-[3-(3-cyclohexylpropoxy)phenyl]-2-(3,6-dihydro-2H-pyran-4-yl)aniline], the EC50 was determined as 2360 nM.

A word on the EC50: it is the concentration at which the effect is half-maximal.

The values above are taken from patent publication US12421206B2, “Aryl-n-aryl derivatives for treating a RNA virus infection” (ABIVAX, priority 2018, dated 2025).
